Data: publication PMC11483378, “Triazole-Based Thiamine Analogues as Inhibitors of Thiamine Pyrophosphate-Dependent Enzymes: 1,3-Dicarboxylate for Metal Binding” (ACS Omega, 2024)

How the values were obtained:
E. coli OGDH E1 = E. coli OGDH E1 (Escherichia coli, UniProt P0AFG3); set-up: method as in PMID 37201323; details: assay conditions of previous study; cited from earlier work
A. viridans PO = A. viridans PO (Aerococcus viridans, UniProt A9X9K8); set-up: method as in PMID 37201323; details: assay conditions of previous study; cited from earlier work
Chain of A. viridans PO (A9X9K8 entry or part of it): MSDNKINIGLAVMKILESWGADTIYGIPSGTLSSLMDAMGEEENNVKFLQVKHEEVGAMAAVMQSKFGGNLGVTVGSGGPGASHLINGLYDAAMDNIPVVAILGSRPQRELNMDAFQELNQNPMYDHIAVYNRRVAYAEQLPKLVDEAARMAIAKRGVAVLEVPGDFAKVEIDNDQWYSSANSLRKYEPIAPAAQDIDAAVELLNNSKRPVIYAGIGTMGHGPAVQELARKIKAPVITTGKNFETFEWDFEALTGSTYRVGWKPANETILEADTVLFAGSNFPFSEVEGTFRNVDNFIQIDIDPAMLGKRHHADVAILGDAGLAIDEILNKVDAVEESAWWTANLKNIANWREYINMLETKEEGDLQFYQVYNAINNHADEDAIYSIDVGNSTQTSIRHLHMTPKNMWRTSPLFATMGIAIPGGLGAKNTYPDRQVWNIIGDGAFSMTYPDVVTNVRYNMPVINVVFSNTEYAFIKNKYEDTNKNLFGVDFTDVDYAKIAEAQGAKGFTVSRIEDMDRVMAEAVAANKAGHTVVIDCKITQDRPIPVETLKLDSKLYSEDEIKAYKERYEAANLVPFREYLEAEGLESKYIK

Porcine PDH E1 = target: T1, Porcine PDH E1 (Sus scrofa, UniProt P29804); set-up: method as in PMID 37201323; details: assay conditions of previous study; cited from earlier work
T1 sequence (P29804 31-390): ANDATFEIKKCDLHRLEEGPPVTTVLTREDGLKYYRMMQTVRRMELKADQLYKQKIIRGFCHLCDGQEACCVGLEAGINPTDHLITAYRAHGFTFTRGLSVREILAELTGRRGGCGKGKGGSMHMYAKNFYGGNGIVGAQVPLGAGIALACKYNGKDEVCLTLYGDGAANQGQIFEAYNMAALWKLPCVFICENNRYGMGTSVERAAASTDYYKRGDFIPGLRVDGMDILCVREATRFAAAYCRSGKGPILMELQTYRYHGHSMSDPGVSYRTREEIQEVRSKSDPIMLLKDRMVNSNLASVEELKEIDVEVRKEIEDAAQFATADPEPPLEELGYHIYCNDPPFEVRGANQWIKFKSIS

[1] = PAMPA (parallel artificial membrane permeability assay); format: in vitro ADME
Protocol: PAMPA – methods and results (Table S2)
PAMPA was carried out in 96-well microtiter filter plates obtained from Millipore as described1 with some modifications. Each well of the filter plate was impregnated with 15 µL of 5% hexadecane dissolved in hexane (i.e. total amount of hexadecane: 0.75 µL) for at least 10 minutes in ventilated environment to allow for complete evaporation of hexane. Donor compartments were filled with 200 µL compound-containing donor solutions of compounds dissolved in 5% DMSO, phosphate buffered saline PBS) and connected to acceptor plate prefilled with buffer (5% DMSO in PBS, pH 7.4). The resulting sandwich was incubated at room temperature under gentle shaking and wrapped in wet paper towels to avoid evaporation. After 10 hours, the sandwich was disassembled and the solutions in the acceptor and donor were transferred to a disposable UV-transparent plate. UV absorption was measured at wavelengths between 220 and 340 nm using a microplate reader (CLARIOstar).
Compounds were tested at 500 µM. Calibration to determine concentration of compounds were performed with varying compound concentrations in buffer (5% DMSO in PBS).
The artificial membrane permeability is expressed as fraction absorbed (Fa%)2 or log Pe (log of the effective permeability)1. LogD values at pH 7.4 were calculated using MarvinSketch.
Fa% = 100 ∙CA ∙VA / CD0 ∙ VD where: CA = final drug concentration in the acceptor well (µM)
VA = volume in the acceptor well (cm3)
CD0 = Initial drug concentration in the donor well (µM)
VD = volume in the donor well (cm3) log P (cm/s) = log -ln 1-CA/Cequilibrium
S = surface area (cm2), typically 0.268 cm2
Cequilibrium = theoretical equilibrium concentration = [CD ∙VD+CA ∙VA] / [VD+VA] where: CD = final drug concentration in the donor well (µM)
CA = final drug concentration in the acceptor well (µM)
Table S2. Permeability data.
Compounds Fa (%) PAMPA log Pe (cm/s) cLogD (pH = 7.4)

S. cerevisiae PDC = target: T2, S. cerevisiae PDC (Saccharomyces cerevisiae, UniProt P06169); set-up: method as in PMID 37201323; details: assay conditions of previous study; cited from earlier work
T2 construct: purchased Sigma
T2 sequence (P06169 2-563 limits assumed): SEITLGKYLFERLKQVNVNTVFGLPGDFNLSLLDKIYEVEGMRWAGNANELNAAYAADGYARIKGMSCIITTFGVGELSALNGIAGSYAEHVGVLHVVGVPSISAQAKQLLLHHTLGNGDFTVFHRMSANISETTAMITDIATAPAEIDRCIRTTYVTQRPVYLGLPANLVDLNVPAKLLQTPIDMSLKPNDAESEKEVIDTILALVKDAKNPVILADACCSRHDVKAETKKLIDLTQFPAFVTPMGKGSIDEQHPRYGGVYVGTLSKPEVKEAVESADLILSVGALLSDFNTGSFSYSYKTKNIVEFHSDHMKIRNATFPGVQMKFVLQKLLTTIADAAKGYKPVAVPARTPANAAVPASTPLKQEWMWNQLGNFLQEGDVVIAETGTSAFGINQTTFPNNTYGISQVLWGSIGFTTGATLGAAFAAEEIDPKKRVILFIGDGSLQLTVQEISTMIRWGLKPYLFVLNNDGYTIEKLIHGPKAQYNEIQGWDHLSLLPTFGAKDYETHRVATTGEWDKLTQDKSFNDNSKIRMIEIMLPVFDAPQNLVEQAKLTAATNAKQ

Chain of E. coli OGDH E1 (P0AFG3 whole entry): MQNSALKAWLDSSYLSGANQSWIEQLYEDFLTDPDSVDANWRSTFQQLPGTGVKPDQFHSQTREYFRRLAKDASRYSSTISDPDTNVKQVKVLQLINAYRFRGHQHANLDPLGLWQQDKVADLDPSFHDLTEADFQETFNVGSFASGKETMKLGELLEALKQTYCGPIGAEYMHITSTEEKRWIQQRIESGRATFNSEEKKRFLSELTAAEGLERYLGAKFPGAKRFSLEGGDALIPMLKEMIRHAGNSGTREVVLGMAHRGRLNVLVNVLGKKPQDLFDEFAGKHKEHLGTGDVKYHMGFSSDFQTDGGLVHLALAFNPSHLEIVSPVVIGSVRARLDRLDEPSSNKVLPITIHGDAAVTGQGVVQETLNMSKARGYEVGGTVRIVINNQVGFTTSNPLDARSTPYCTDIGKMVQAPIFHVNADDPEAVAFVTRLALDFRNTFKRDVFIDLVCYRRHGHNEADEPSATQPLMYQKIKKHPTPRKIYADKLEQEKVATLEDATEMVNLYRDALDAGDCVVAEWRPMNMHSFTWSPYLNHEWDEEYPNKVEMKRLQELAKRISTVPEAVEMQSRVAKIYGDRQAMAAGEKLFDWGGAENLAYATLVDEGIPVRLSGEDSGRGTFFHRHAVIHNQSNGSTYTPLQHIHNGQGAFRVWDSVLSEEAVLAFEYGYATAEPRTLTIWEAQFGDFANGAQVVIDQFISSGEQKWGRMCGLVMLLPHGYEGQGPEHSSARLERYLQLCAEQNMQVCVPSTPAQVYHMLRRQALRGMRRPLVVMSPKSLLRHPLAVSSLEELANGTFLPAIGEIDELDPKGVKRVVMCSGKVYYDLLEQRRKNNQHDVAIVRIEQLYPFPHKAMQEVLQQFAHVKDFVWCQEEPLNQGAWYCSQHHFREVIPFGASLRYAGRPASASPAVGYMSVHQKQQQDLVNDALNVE

Cc1ncc(Cn2cc(CCOP(=O)(O)O)nn2)c(N)n1 [compound 5]
IC50 (E. coli OGDH E1): 170 µM | IC50 (A. viridans PO): 348 µM | IC50 (Porcine PDH E1): 6.6 µM | membrane permeability in PAMPA (in words) [1]: membrane-impermeable | Papp at 10 h, 500 µM ([1]; PAMPA, compounds at 500 µM, 5% DMSO in PBS pH 7.4, 10 hours, room temperature, read-out: PAMPA log Pe (converted)): 0.398 ×10⁻⁶ cm/s | Fa (fraction absorbed) ([1]; compounds at 500 µM, 5% DMSO in PBS pH 7.4, 10 hours, room temperature): 2% | IC50 (S. cerevisiae PDC): 1300 µM
